Experimental data from patent publication US20250197406A1, “INDAZOLES AS HEMATOPOIETIC PROGENITOR KINASE 1 (HPK1) INHIBITORS AND METHODS FOR USING SAME” (1ST Biotherapeutics, Inc., priority 2022, published 2025).
Counter-ions that a name gives are not always drawn.

Biological target: recombinant human HPK1 (Homo sapiens (Human), UniProt Q92918)
Assay: HPK1 kinase assay (Promega ADP-Glo kinase assay)
Format: biochemical
Details: In vitro activity against HPK1, 5 ng HPK1, MBP substrate, ATP 25 μM, 30° C. 40 minutes
Description: HPK1 kinase activity was measured by Promega's ADP-Glo™ kinase assay. In this assay, 5 ng of recombinant human HPK1 (signalchem) is incubated with 5 μL of compounds (0.5% DMSO), 5 μL of MBP (0.5 μg/μl) and 5 μL of ATP (25 μM) in buffer (40 mM Tris, 7.5; 20 mM MgCl2; 0.1 mg/ml BSA; 50 μM DTT.). The assay was started by incubating the reaction mixture in a 96-well plate at 30° C. for 40 minutes. After the incubation, 25 μL ADP-Glo reagent was added and the reaction was incubated at room temperature for 40-min to stop the reaction and degrade residual ATP. The ADP product was then converted to ATP by adding 50 μL per well of detection reagent. Luminescence was detected after 30-min room temperature incubation with the Molecular device I3X plate reader. The IC50 values were calculated from a series of percent inhibition values determined at a range of inhibitor concentration using software routines as implemented in the GraphPad Prism 7 software and SigmaPlot13.0.

recombinant human HPK1, sequence (Q92918 whole entry): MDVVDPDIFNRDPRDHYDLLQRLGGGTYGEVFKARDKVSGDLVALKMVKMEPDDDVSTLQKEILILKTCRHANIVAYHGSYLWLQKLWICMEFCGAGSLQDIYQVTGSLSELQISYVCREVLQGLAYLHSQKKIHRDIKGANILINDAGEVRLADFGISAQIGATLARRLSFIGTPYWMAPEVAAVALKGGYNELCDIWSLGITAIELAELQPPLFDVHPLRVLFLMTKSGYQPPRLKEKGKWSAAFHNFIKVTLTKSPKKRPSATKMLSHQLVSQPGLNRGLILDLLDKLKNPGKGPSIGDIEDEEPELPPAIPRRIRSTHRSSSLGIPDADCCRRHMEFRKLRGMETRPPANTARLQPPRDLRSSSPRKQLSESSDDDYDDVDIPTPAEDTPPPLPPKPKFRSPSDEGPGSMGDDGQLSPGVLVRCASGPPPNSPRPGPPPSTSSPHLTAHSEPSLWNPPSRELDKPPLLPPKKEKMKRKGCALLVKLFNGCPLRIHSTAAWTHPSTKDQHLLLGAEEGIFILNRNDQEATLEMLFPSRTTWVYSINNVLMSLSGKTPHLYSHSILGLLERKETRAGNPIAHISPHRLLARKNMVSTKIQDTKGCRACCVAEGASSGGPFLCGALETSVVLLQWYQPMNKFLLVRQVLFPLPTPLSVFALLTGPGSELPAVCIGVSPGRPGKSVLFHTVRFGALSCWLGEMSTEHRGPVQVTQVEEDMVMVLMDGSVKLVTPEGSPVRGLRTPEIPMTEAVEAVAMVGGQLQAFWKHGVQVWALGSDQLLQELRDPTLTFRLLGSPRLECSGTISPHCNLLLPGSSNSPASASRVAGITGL

`Cc1c(F)c(C(C)C(F)F)c2[nH]ncc2c1-c1cn2cc(NC(=O)[C@@H]3C[C@@H]3F)nc2cn1` (stereo partly drawn) [Example 5, (1S,2S)-N-(6-(7-(1,1-difluoropropan-2-yl)-6-fluoro-5-methyl-1H-indazol-4-yl)imidazo[1,2-a]pyrazin-2-yl)-2-fluorocyclopropane-1-carboxamide] and `Cc1c(F)c(C(C)CN)c2[nH]ncc2c1-c1cn2cc(NC(=O)[C@@H]3C[C@@H]3F)nc2cn1` (stereo partly drawn) [Example 24, (1S,2S)-N-(6-(7-(1-aminopropan-2-yl)-6-fluoro-5-methyl-1H-indazol-4-yl)imidazo[1,2-a]pyrazin-2-yl)-2-fluorocyclopropane-1-carboxamide] cannot be ordered by IC50: less than 100 nM for the first, less than 100 nM for the second.

First: CC(C)Nc1c(F)c(Cl)c(-c2cn3cc(NC(=O)OC(C)C)nc3cn2)c2cn[nH]c12 [Example 95, isopropyl (6-(5-chloro-6-fluoro-7-(isopropylamino)-1H-indazol-4-yl)imidazo[1,2-a]pyrazin-2-yl)carbamate]
Second: CC(C)Nc1c(F)c(Cl)c(-c2cn3cc(NC(=O)[C@@H](C)N(C)C)nc3cn2)c2cn[nH]c12 [Example 106, (R)-N-(6-(5-chloro-6-fluoro-7-(isopropylamino)-1H-indazol-4-yl)imidazo[1,2-a]pyrazin-2-yl)-2-(dimethylamino)propanamide]
The IC50 of the first is lower: less than 100 nM for the first, 501 to 1000 nM for the second.

`CC(=O)Nc1cn2cc(-c3c(Cl)c(F)c([C@@H](C)N[S@+]([O-])C(C)(C)C)c4[nH]ncc34)ncc2n1` [Example 135, N-(6-(7-((R)-1-(((R)-tert-butylsulfinyl)amino)ethyl)-5-chloro-6-fluoro-1H-indazol-4-yl)imidazo[1,2-a]pyrazin-2-yl)acetamide] and `CC(N[S+]([O-])C(C)(C)C)c1c(F)c(C(F)(F)F)c(-c2cn3cc(NC(=O)[C@@H]4C[C@@H]4F)nc3cn2)c2cn[nH]c12` (stereo partly drawn) [Example 87, (1S,2S)-N-(6-(7-(1-((tert-butylsulfinyl)amino)ethyl)-6-fluoro-5-(trifluoromethyl)-1H-indazol-4-yl)imidazo[1,2-a]pyrazin-2-yl)-2-fluorocyclopropane-1-carboxamide] cannot be ordered by IC50: less than 100 nM for the first, less than 100 nM for the second.

`CC(C)Nc1c(F)c(Cl)c(-c2cn3cc(NC(=O)CCO)nc3cn2)c2cn[nH]c12` [Example 130, N-(6-(5-chloro-6-fluoro-7-(isopropylamino)-1H-indazol-4-yl)imidazo[1,2-a]pyrazin-2-yl)-3-hydroxypropanamide] and `CC(C)Nc1c(F)c(Cl)c(-c2cn3cc(NC(=O)CN)nc3cn2)c2cn[nH]c12` [Example 80, 2-amino-N-(6-(5-chloro-6-fluoro-7-(isopropylamino)-1H-indazol-4-yl)imidazo[1,2-a]pyrazin-2-yl)acetamide] cannot be ordered by IC50: less than 100 nM for the first, less than 100 nM for the second.

First: CC(C)Nc1c(F)c(Cl)c(-c2cn3cc(NC(=O)C4CCCO4)nc3cn2)c2cn[nH]c12 (stereo not drawn) [Example 111, N-(6-(5-chloro-6-fluoro-7-(isopropylamino)-1H-indazol-4-yl)imidazo[1,2-a]pyrazin-2-yl)tetrahydrofuran-2-carboxamide]
Second: CC(C)Nc1c(F)c(Cl)c(-c2cn3cc(NC(=O)OC4CCC4)nc3cn2)c2cn[nH]c12 [Example 126, cyclobutyl (6-(5-chloro-6-fluoro-7-(isopropylamino)-1H-indazol-4-yl)imidazo[1,2-a]pyrazin-2-yl)carbamate formate]
The IC50 of the first is higher: 101 to 500 nM for the first, less than 100 nM for the second.

Compared with `COC(=O)C1OC(N(c2c(F)c(Cl)c(-c3cn4cc(NC(=O)[C@@H]5C[C@@H]5F)nc4cn3)c3cn[nH]c23)C(C)C)C(OC(C)=O)C(OC(C)=O)C1OC(C)=O` (stereo partly drawn) [Example 18, 2-((5-chloro-6-fluoro-4-(2-((1S,2S)-2-fluorocyclopropane-1-carboxamido)imidazo[1,2-a]pyrazin-6-yl)-1H-indazol-7-yl)(isopropyl)amino)-6-(methoxycarbonyl)tetrahydro-2H-pyran-3,4,5-triyl triacetate], `Cc1c(F)c(C(C)NC(=O)C2CC2)c2[nH]ncc2c1-c1cn2cc(NC(=O)[C@@H]3C[C@@H]3F)nc2cn1` (stereo partly drawn) [Example 69, (1S,2S)-N-(6-(7-(1-(cyclopropanecarboxamido)ethyl)-6-fluoro-5-methyl-1H-indazol-4-yl)imidazo[1,2-a]pyrazin-2-yl)-2-fluorocyclopropane-1-carboxamide] is lower in IC50: 101 to 500 nM for the first, less than 100 nM for the second. The second is the more potent here.

`COc1c(F)c(NC(C)C)c2[nH]ncc2c1-c1cn2cc(NC(=O)[C@@H]3C[C@@H]3C#N)nc2cn1` [Example 164, (1R,2S)-2-cyano-N-(6-(6-fluoro-7-(isopropylamino)-5-methoxy-1H-indazol-4-yl)imidazo[1,2-a]pyrazin-2-yl)cyclopropane-1-carboxamide] and `CC(C)Nc1c(F)c(Cl)c(-c2cn3cc(NC(=O)[C@@H]4C[C@@H]4CO)nc3cn2)c2cn[nH]c12` [Example 38, (IR,2S)-N-(6-(5-chloro-6-fluoro-7-(isopropylamino)-1H-indazol-4-yl)imidazo[1,2-a]pyrazin-2-yl)-2-(hydroxymethyl)cyclopropane-1-carboxamide] cannot be ordered by IC50: less than 100 nM for the first, less than 100 nM for the second.

First: Cc1c(F)c(C(C)CN2C(=O)c3ccccc3C2=O)c2[nH]ncc2c1-c1cn2cc(NC(=O)[C@@H]3C[C@@H]3F)nc2cn1 (stereo partly drawn) [Example 22, (1S,2S)-N-(6-(7-(1-(1,3-dioxoisoindolin-2-yl)propan-2-yl)-6-fluoro-5-methyl-1H-indazol-4-yl)imidazo[1,2-a]pyrazin-2-yl)-2-fluorocyclopropane-1-carboxamide]
Second: Cc1c(F)c(C(C)CN(C)C)c2[nH]ncc2c1-c1cn2cc(NC(=O)[C@@H]3C[C@@H]3F)nc2cn1 (stereo partly drawn) [Example 13, (1S,2S)-N-(6-(7-(1-(dimethylamino)propan-2-yl)-6-fluoro-5-methyl-1H-indazol-4-yl)imidazo[1,2-a]pyrazin-2-yl)-2-fluorocyclopropane-1-carboxamide]
The IC50 of the first is lower: less than 100 nM for the first, 101 to 500 nM for the second. The first is the more potent here.

`C[C@@H](NC(=O)C(F)(F)F)c1c(F)c(Cl)c(-c2cn3cc(NC(=O)[C@@H]4C[C@@H]4F)nc3cn2)c2cn[nH]c12` [Example 137, (1S,2S)-N-(6-(5-chloro-6-fluoro-7-((R)-1-(2,2,2-trifluoroacetamido)ethyl)-1H-indazol-4-yl)imidazo[1,2-a]pyrazin-2-yl)-2-fluorocyclopropane-1-carboxamide] and `CC(=O)NC(c1c(F)c(C(F)(F)F)c(-c2cn3cc(NC(=O)[C@@H]4C[C@@H]4F)nc3cn2)c2cn[nH]c12)C1CC1` (stereo partly drawn) [Example 56, (1S,2S)-N-(6-(7-(acetamido(cyclopropyl)methyl)-6-fluoro-5-(trifluoromethyl)-1H-indazol-4-yl)imidazo[1,2-a]pyrazin-2-yl)-2-fluorocyclopropane-1-carboxamide formate] cannot be ordered by IC50: less than 100 nM for the first, less than 100 nM for the second.

`CC(C)Nc1c(F)c(Cl)c(-c2cn3cc(NC(=O)C(F)(F)F)nc3cn2)c2cn[nH]c12` [Example 66, N-(6-(5-chloro-6-fluoro-7-(isopropylamino)-1H-indazol-4-yl)imidazo[1,2-a]pyrazin-2-yl)-2,2,2-trifluoroacetamide] and `CCNC(=O)Nc1cn2cc(-c3c(Cl)c(F)c(NC(C)C)c4[nH]ncc34)ncc2n1` [Example 119, 1-(6-(5-chloro-6-fluoro-7-(isopropylamino)-1H-indazol-4-yl)imidazo[1,2-a]pyrazin-2-yl)-3-ethylurea] cannot be ordered by IC50: less than 100 nM for the first, less than 100 nM for the second.

`CC(=O)NC(c1c(F)c(C(F)F)c(-c2cn3cc(NC(=O)[C@@H]4C[C@@H]4F)nc3cn2)c2cn[nH]c12)C1CC1` (stereo partly drawn) [Example 54, (1S,2S)-N-(6-(7-(acetamido(cyclopropyl)methyl)-5-(difluoromethyl)-6-fluoro-1H-indazol-4-yl)imidazo[1,2-a]pyrazin-2-yl)-2-fluorocyclopropane-1-carboxamide] and `CC(=O)NC(c1c(F)c(C)c(-c2cn3cc(NC(=O)[C@@H]4C[C@@H]4F)nc3cn2)c2cn[nH]c12)C1CC1` (stereo partly drawn) [Example 42, (1S,2S)-N-(6-(7-(acetamido(cyclopropyl)methyl)-6-fluoro-5-methyl-1H-indazol-4-yl)imidazo[1,2-a]pyrazin-2-yl)-2-fluorocyclopropane-1-carboxamide] cannot be ordered by IC50: less than 100 nM for the first, less than 100 nM for the second.

Compared with `COc1c(F)c(N(C)C)c2[nH]ncc2c1-c1cn2cc(NC(=O)[C@@H]3C[C@@H]3F)nc2cn1` [Example 136, (1S,2S)-N-(6-(7-(dimethylamino)-6-fluoro-5-methoxy-1H-indazol-4-yl)imidazo[1,2-a]pyrazin-2-yl)-2-fluorocyclopropane-1-carboxamide], `CNC(C)c1c(F)c(C)c(-c2cn3cc(NC(=O)[C@@H]4C[C@@H]4F)nc3cn2)c2cn[nH]c12` (stereo partly drawn) [Example 10, (1S,2S)-2-fluoro-N-(6-(6-fluoro-5-methyl-7-(1-(methylamino)ethyl)-1H-indazol-4-yl)imidazo[1,2-a]pyrazin-2-yl)cyclopropane-1-carboxamide] is higher in IC50: less than 100 nM for the first, 101 to 500 nM for the second. The first is the more potent here.

First: CC(C)Nc1c(F)c(Cl)c(-c2cn3cc(NC(=O)N4CCNCC4)nc3cn2)c2cn[nH]c12 [Example 120, N-(6-(5-chloro-6-fluoro-7-(isopropylamino)-1H-indazol-4-yl)imidazo[1,2-a]pyrazin-2-yl)piperazine-1-carboxamide]
Second: CCC(=O)N1CC(Oc2c(F)c(Cl)c(-c3cn4cc(NC(C)=O)nc4cn3)c3cn[nH]c23)C1 [Example 149, N-(6-(5-chloro-6-fluoro-7-((1-propionylazetidin-3-yl)oxy)-1H-indazol-4-yl)imidazo[1,2-a]pyrazin-2-yl)acetamide]
The IC50 of the first is lower: less than 100 nM for the first, 501 to 1000 nM for the second. The first is the more potent here.

In the case of `Cc1c(F)c(C2=CCCC2)c2[nH]ncc2c1-c1cn2cc(NC(=O)[C@@H]3C[C@@H]3F)nc2cn1` [Example 11, (1S,2S)-N-(6-(7-(cyclopent-1-en-1-yl)-6-fluoro-5-methyl-1H-indazol-4-yl)imidazo[1,2-a]pyrazin-2-yl)-2-fluorocyclopropane-1-carboxamide], the IC50 is reported as less than 100 nM.
